According to BindingDB's records for patent US20240034727 (Stingray Therapeutics, 2024):

Biological target: T1, Ectonucleotide pyrophosphatase/phosphodiesterase family member 1 (Homo sapiens, UniProt P22413)
T1 sequence (P22413 whole entry): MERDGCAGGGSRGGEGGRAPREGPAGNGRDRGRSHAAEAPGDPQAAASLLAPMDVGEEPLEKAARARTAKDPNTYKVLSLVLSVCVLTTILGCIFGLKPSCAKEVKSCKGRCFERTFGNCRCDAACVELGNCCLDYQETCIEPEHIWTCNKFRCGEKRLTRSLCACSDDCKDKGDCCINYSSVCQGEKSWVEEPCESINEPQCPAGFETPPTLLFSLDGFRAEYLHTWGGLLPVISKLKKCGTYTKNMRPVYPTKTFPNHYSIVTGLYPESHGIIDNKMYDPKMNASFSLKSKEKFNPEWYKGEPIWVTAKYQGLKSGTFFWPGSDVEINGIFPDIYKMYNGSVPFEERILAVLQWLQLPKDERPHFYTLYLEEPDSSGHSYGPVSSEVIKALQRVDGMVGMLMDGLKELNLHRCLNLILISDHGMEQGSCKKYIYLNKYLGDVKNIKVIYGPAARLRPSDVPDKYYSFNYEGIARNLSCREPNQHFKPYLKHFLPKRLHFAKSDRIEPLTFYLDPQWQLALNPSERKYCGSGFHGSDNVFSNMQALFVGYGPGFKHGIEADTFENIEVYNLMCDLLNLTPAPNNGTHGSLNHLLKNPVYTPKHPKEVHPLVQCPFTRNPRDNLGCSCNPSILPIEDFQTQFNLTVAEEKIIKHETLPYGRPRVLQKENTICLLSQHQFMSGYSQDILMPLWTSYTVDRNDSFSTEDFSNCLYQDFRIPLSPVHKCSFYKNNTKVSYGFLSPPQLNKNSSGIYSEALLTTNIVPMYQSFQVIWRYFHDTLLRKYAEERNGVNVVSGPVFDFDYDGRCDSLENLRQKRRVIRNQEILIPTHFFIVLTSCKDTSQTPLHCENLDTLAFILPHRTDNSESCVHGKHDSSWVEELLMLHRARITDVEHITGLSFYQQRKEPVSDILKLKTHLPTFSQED
Assay: ENPP1 Inhibition Assay
Description: Assay Buffer: 1 mM CaCl2), 0.2 mM ZnCl2, 50 mM Tris, pH 9.0. Substrate: 8 mM Thymidine 5′-monophosphate p-nitrophenol ester sodium salt (Sigma Cat #T4510). Enzyme: 5 ng/L Recombinant Human ENPP-1 Protein (R&D Cat #6136-EN-010) in DMSO in 96-well clear assay plates. An eight point serial dilution of drugs was prepared in 10 in assay buffer with the final assay concentrations starting at 10 μM, 3 μM, 1 μM, 0.3 μM and 0 μM. A dilution of DMSO was included as a control. The assay plate was set up as follows with each well in duplicate: 81 μL assay buffer+10 μL ENPP1 inhibitor or DMSO+5 μL Substrate+4 μL Enzyme. Both the enzyme and substrate was added to opposite sides of the well to ensure that there was no interaction until all wells had both components. The plate was then centrifuged gently for 10 seconds, followed by an incubation at 37 C. for 45 minutes. The reaction was quantified by measuring absorbance at 405 nm using the Envision. IC50 values are determined using GraphPad Prism 5 software. The data were entered as an X-Y plot into the software as percent inhibition for each concentration of the drug. The concentration values of the drug were log transformed and the nonlinear regression was carried out using the sigmoidal dose-response (variable slope) option within the GraphPad software to model the data and calculate IC50 values. […]

Row | SMILES | IC50 [µM]
1 | COc1ccc(NC(=O)CSc2nc(C(=O)O)c[nH]2)cc1Cl [US20240034727, Compound I-35] | < 0.2
2 | O=C(CSc1nc(C(=O)O)c[nH]1)NCc1cccc(Cl)c1 [US20240034727, Compound I-21] | > 10
